Data taken from US20260132126A1, “IMIDAZOLE DERIVATIVES” (SANWA KAGAKU KENKYUSHO CO., LTD., priority 2022, published 2026).

Target: T1, human α1A adrenergic receptor (Homo sapiens, UniProt P35348)
T1 construct: host or cells: GeneBLAzer ADRA1A-NFAT-bla CHO-K1 cells
T1 sequence (P35348 1-466): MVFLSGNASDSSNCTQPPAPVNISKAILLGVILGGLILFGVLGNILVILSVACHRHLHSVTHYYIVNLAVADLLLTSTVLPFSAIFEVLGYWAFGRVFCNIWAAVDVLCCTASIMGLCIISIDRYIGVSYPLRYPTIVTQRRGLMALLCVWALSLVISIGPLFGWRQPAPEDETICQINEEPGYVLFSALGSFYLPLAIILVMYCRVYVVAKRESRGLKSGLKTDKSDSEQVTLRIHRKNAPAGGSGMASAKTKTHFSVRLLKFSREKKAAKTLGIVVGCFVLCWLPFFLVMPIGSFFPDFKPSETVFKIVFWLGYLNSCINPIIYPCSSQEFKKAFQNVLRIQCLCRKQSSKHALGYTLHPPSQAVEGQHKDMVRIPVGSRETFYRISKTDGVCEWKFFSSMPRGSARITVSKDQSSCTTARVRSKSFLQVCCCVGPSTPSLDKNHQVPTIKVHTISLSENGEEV
Assay: Ca2+ mobilization assay in human α1A adrenergic receptor-expressing cells
Type: cell-based
Set-up: Emax: dose or concentration left out as unconfirmed
Details: for Emax at 10 µM: % activation at 10 μmol/L test compound, 100 μmol/L norepinephrine = 100%, well without test compound = 0%; for EC50: CHO-K1 cells expressing human α1A adrenergic receptor, Fluo-4 fluorescence, concentration giving 50% response of Emax, 4-parameter logistic regression
Method: CHO-K1 cells that highly express a human α1A adrenergic receptor (GeneBLAzer™ ADRA1A-NFAT-bla CHO-K1 Cells) were purchased from Thermo Fisher Scientific, Inc., and cultured according to the instructions.
The cultured human α1A adrenergic receptor-expressing cells were washed with D-PBS, then replaced with a loading buffer (2 μmol/L Fluo-4/AM, 1× PowerLoad, 2.5 mmol/L Probenecid-containing DMEM (high-glucose)) and incubated at 37° C. for 60 minutes in a 5% CO2 incubator. The cells were detached using 0.05% trypsin-EDTA solution, and suspended in an assay buffer ([…], 0.054 mol/L KCl, 1.8 mmol/L CaCl2), 1 mmol/L MgSO4, 0.11 mol/L glucose, 0.01 mol/L NaH2PO4·2H2O, […], pH 7.3) to be 500,000 cells/mL.
Test compounds were dissolved in dimethylsulfoxide, and diluted with an assay buffer containing 0.3% BSA. The final concentrations of the test compounds were set to fall within the range of 0.1 nmol/L to 10 μmol/L. As a reference compound, norepinephrine was set to have a final concentration within the range of 0.01 nmol/L to 100 μmol/L.
On a 384-well clear bottom black plate coated with poly-D-lysine (Corning Inc.), the above-described cell-suspended solution was dispersed in 40 μL each (20,000 cells/well) and allowed to stand for 10 minutes. The plate was transferred to a fluorescent imaging plate reader (FDSS7000, Hamamatsu Photonics K.K.), and measurements were started. After 1 minute from the start of the measurements, 20 μL of the test compound solutions or norepinephrine solution (total amount: 60 μL/well) was added to each well of the plate (final concentration: 0.1% BSA, 0.1% dimethylsulfoxide), and the temporal change in fluorescence intensity of Fluo-4 was further measured for 5 minutes (Ex 480 nm/Em 540 nm).
The normalized values (% activation) were used for subsequent analyses.
Emax values and EC50 values were calculated by creating a concentration-response curve of the test compounds using a 4-parameter logistic regression with XLFit, Emax value being defined as % activation of test compound at the concentration of 10 μmol/L, and EC50 value being defined as the concentration in which 50% response of the Emax values is shown.

Structure (SMILES) | Emax at 10 µM [%] | EC50 [nM] | Emax [%]
Cc1c(F)cncc1-c1ccccc1OCc1c[nH]cn1 [Example 60] | 90 | 3.2 | 
COc1ncc(F)cc1-c1ccccc1OCc1c[nH]cn1 [Example 61] | 90 | 4.5 | 
COc1ccncc1-c1ccc(C)cc1OCc1c[nH]cn1 [Example 62] | 91 | 2.4 | 
COc1ccncc1-c1ccc(F)cc1OCc1c[nH]cn1 [Example 63] | 92 | 0.7 | 
Cc1ncncc1-c1ccc(F)cc1OCc1c[nH]cn1 [Example 64] | 99 | 5.3 | 
Cc1ccc(-c2cncnc2C)c(OCc2c[nH]cn2)c1 [Example 65] | 98 | 6.7 | 
Cc1ccc(-c2cnccn2)c(OCc2c[nH]cn2)c1 [Example 66, 2-(2-((1H-Imidazol-4-yl)methoxy)-4-methylphenyl)pyrazine] | 96 | 1.3 | 
c1ccc(-c2cscn2)c(OCc2c[nH]cn2)c1 [Example 67, 4-(2-((1H-Imidazol-4-yl)methoxy)phenyl)thiazole] | 103 | 2.1 | 
c1ccc(-c2cnccn2)c(OCc2c[nH]cn2)c1 [Example 68] |  | 2.3 | 100
c1ccc(-c2cncnc2)c(OCc2c[nH]cn2)c1 [Example 69] |  | 0.9 | 104
c1ccc(-c2nccs2)c(OCc2c[nH]cn2)c1 [Example 70] |  | 2.4 | 93
c1ccc(-c2cncs2)c(OCc2c[nH]cn2)c1 [Example 71] |  | 1.9 | 103
Cc1ccncc1-c1ccccc1OCc1c[nH]cn1 [Example 72] |  | 7.4 | 106
c1ccc(-c2cnccc2C2CC2)c(OCc2c[nH]cn2)c1 [Example 73] |  | 0.7 | 89
COc1c(F)cncc1-c1ccccc1OCc1c[nH]cn1 [Example 74] |  | 0.5 | 96
COc1ncncc1-c1ccccc1OCc1c[nH]cn1 [Example 75] |  | 0.2 | 95
Cc1ncncc1-c1ccccc1OCc1c[nH]cn1 [Example 76] |  | 3.3 | 98
COc1cncc(-c2ccccc2OCc2c[nH]cn2)n1 [Example 77] |  | 0.6 | 92
CC(Oc1ccccc1-c1cccs1)c1c[nH]cn1 (stereo not shown) [Example 78, 4-(1-(2-(Thiophen-2-yl)phenoxy)ethyl)-1H-imidazole] | 99 | 6.4 | 
c1cncc(-c2ccccc2SCc2c[nH]cn2)c1 [Example 80, 3-(2-(((1H-Imidazol-4-yl)methyl)thio)phenyl)pyridine] | 101 | 3.4 | 
c1ccc(-c2cn[nH]c2)c(SCc2c[nH]cn2)c1 [Example 81] | 106 | 9 | 
c1ccc(-c2ccsc2)c(SCc2c[nH]cn2)c1 [Example 82] | 104 | 6.9 | 
c1ccc(-c2cnco2)c(NCc2c[nH]cn2)c1 [compound 1, N-((1H-imidazol-4-yl)methyl)-2-(oxazol-5-yl) aniline, reference compound] | 91 | 20 | 
